The values that follow are results of earlier work, collected in US11723862B2, “Dosage form with sustained release melatonin pellets” (SOCIÉTÉ DES PRODUITS NESTLÉ S.A., priority 2020, dated 2023).

For this series the following is noted: above pH=4.4.

For `COc1ccc2[nH]cc(CCNC(C)=O)c2c1` [melatonin], the aqueous solubility result is recorded as “low”.
